US20240368157A1, “FORMS AND COMPOSITIONS OF A JAK2 INHIBITOR” (Ajax Therapeutics, Inc., priority 2023, published 2024)
≈ marks a conversion by molar mass, not a printed value.

What was measured:
Caco2 Permeability Assay = format: in vitro ADME; conditions: human, Caco-2, pH 7.4; for Papp A→B at 2 h, 5 μM: apical to basolateral; for efflux ratio at 2 h, 5 μM: read-out: Efflux Ratio (ER)
Procedure: Preparation of Caco-2 Cells: 50 μL and 25 mL of cell culture medium are added to each well of a Transwell® insert and reservoir, respectively. Then, the HTS Transwell® plates are incubated at 37° C., 5% CO2 for 1 hour before cell seeding. Caco-2 cell cells are diluted to 6.86×10^5 cells/mL with culture medium, and 50 μL of cell suspension are dispensed into the filter well of the 96-well HTS Transwell® plate. Cells are cultivated for 14-18 days in a cell culture incubator at 37° C., 5% CO2, 95% relative humidity. Cell culture medium is replaced every other day, beginning no later than 24 hours after initial plating.
Preparation of Stock Solutions: 10 mM stock solutions of test compounds arc prepared in DMSO. The stock solutions of positive controls are prepared in DMSO at the concentration of 10 mM. Digoxin and propranolol are used as control compounds in this assay.
Assessment of Cell Monolayer Integrity: Medium is removed from the reservoir and each Transwell® insert and is replaced with prewarmed fresh culture medium. Transepithelial electrical resistance (TEER) across the monolayer is measured using Millicell Epithelial Volt-Ohm measuring system (Millipore, USA). The Plate is returned to the incubator once the measurement is done. The TEER value is calculated according to the following equation: TEER measurement (ohms)×Area of membrane (cm^2)=TEER value (ohm·cm^2). A TEER value greater than 230 ohm·cm^2 indicates a well-qualified Caco-2 monolayer.
Assay Procedure: The Caco-2 plate is removed from the incubator and washed twice with pre-warmed HBSS (10 mM HEPES, pH 7.4), and then incubated at 37° C. for 30 minutes. The stock solutions of control compounds are diluted in DMSO to get 1 mM solutions and then diluted with HBSS (10 mM HEPES, pH 7.4) to get 5 μM working solutions. The stock solutions of the test compounds are diluted in DMSO to get 1 mM solutions and then diluted with HBSS (10 mM HEPES and 4% BSA, pH 7.4) to get 5 μM working solutions. The final concentration of DMSO in the incubation system is 0.5%. To determine the rate of drug transport in the apical to basolateral direction. 75 μL of 5 μM working solutions of test compounds are added to the Transwell® insert (apical compartment) and the wells in the receiver plate (basolateral compartment) are filled with 235 μL of HBSS (10 mM HEPES and 4% BSA, pH 7.4). To determine the rate of drug transport in the basolateral to apical direction, 235 μL of 5 μM working solutions of test compounds are added to the receiver plate wells (basolateral compartment) and then the Transwell® inserts (apical compartment) are filled with 75 μL of HBSS (10 mM HEPES and 4% BSA, pH 7.4). […]

Kinetic Solubility Assay = format: physicochemical; conditions: aqueous buffer, kinetic from dmso stock, PBS, RT, pH of the reported value not stated (method: pH 4.0 and pH 7.4)
Procedure: Stock solutions of test compounds are prepared in DMSO at the concentration of 10 mM, and a stock solution of control compound is prepared in DMSO at the concentration of 30 mM. Diclofenac is used as positive control in the assay. 30 μL stock solution of each compound is placed into their a 96-well rack, followed by adding 970 μL of PBS at pH 4.0 and pH 7.4 into each vial of the cap-less solubility sample plate. This study is performed in duplicate. One stir stick is added to each vial and then vials are sealed using a molded PTDE/SIL 96-Well Plate Cover. The solubility sample plate is transferred to the Thermomixer comfort plate shaker and incubated at RT for 2 hours with shaking at 1100 rpm. After 2 hours incubation, stir sticks are removed using a big magnet and all samples from the solubility sample plate are transferred into the filter plate. All the samples are filtered by vacuum manifold. The filtered samples are diluted with methanol. Samples are analyzed by LC-MS/MS and quantified against a standard of known concentration in DMSO using LC coupled with Mass spectral peak identification and quantitation. The solubility values of the test compounds are calculated as follows, wherein INJ VOL is injection volume, DF is dilution factor, and STD is standard: […]

| Structure (SMILES) | Papp A→B at 2 h, 5 μM (Caco2 Permeability Assay) | efflux ratio at 2 h, 5 μM (Caco2 Permeability Assay) | solubility at 2 h (Kinetic Solubility Assay) |
| --- | --- | --- | --- |
| CN(C)C(=O)Nc1cc(Oc2cnc3nc(Nc4cc(C(F)(F)F)cn(C)c4=O)n(C)c3c2C#N)ccn1 [Compound 1, 3-(4-((7-cyano-1-methyl-2-((1-methyl-2-oxo-5-(trifluoromethyl)-1,2-dihydropyridin-3-yl)amino)-1H-imidazo[4,5-b]pyridin-6-yl)oxy)pyridin-2-yl)-1,1-dimethylurea] | 7 ×10⁻⁶ cm/s | 2 to 5 | 9 to 100 µM (≈ 4.75 to 52.7 µg/mL) |
| CCN1CCN(Cc2ccc(Nc3nc4ccc(Oc5ccnc(NC(C)=O)c5)cc4n3C)cc2C(F)(F)F)CC1 [Compound R-1, reference compound] | 0.4 ×10⁻⁶ cm/s | 10 to 30 | 100 to 200 µM (≈ 56.8 to 114 µg/mL) |
